Reference: the NIST ThermoML archive (doi:10.1021/je800557h)
± gives the expanded uncertainty stated by the source.

Conditions: Liquid, Ebulliometric method (Recirculating still)

Compound	vapor or sublimation pressure (298.15 K)	vapor or sublimation pressure (323.15 K)
O [water]	3.166 ± 0.054 kPa	12.35 ± 0.087 kPa
CC#N [acetonitrile]		33.86 ± 0.38 kPa
